Activity, Ratio and MIC data for one molecule are collected here from ChEMBL document CHEMBL4011640, “Identification and Structure-Activity Relationships of Novel Compounds that Potentiate the Activities of Antibiotics in Escherichia coli” (J Med Chem, 2017).

Assay [1] has as its system Escherichia coli. As to the kind of experiment: Inhibition of AcrA in Escherichia coli assessed as increase in HT dye uptake at 25 uM measured up to 600 secs by fluorescence method.
The subject of a further assay is Escherichia coli BW25113. In words: Inhibition of AcrA efflux pump in Escherichia coli BW25113 assessed as compound concentration required for potentiation of novobiocin-induced antibacterial activity by 4 fold by checkerboard assay.
The test system of assay [2] is Escherichia coli. As to the kind of experiment: Binding affinity to Escherichia coli AG100 His-tagged AcrA at 50 uM by SPR assay. Background: SPR reads the build-up and loss of mass on a sensor chip optically.
Assay [3] in a line: Ratio of MIC for wild type Escherichia coli BW25113 to MIC for Escherichia coli harboring […] pores in the outer membrane. Format: functional, cell membranes.
Assay [4] relates to Escherichia coli. As to the kind of experiment: Binding affinity to Escherichia coli AG100 His-tagged AcrA at 25 uM by SPR assay.
Assay [5] relates to Escherichia coli. In words: Antimicrobial activity against Escherichia coli harboring AcrAB-TolC deletion mutant after 24 hrs by two-fold broth microdilution assay. The class given is functional.
In assay [6] the test system is Escherichia coli. As to the kind of experiment: Antimicrobial activity against AcrAB-TolC knocked out Escherichia coli GD102 harboring […] pores in the outer membrane after 24 hrs by two-fold broth microdilution assay. The class given is functional. Conditions: GD102, 24 h. A general note: Broth dilution looks for growth in wells or tubes with falling amounts of substance.

Assay [7] deals with Escherichia coli. As to the kind of experiment: Ratio of MIC for wild type Escherichia coli harboring AcrAB-TolC deletion mutant to MIC for AcrAB-TolC knocked out Escherichia coli GD102 harboring […] pores in the outer membrane. The class given is functional.
Assay [8] concerns Escherichia coli. As to the kind of experiment: Antimicrobial activity against Escherichia coli BW25113 after 24 hrs by two-fold broth microdilution assay. The class given is functional. Conditions: BW25113, 24 h.
The test system of assay [9] is Escherichia coli. As to the kind of experiment: Antimicrobial activity against Escherichia coli harboring pores in outer membrane after 24 hrs by two-fold broth microdilution assay. The class given is functional.

Converted amounts (≈) assume the structure as drawn. The source made the active and inactive calls. The rule behind the calls is not given here.

Take `O=C(Nc1ccc(C2=NCCN2)cc1)[C@H]1CC[C@H](C(=O)Nc2ccc(C3=NCCN3)cc2)CC1`: the result in the assay with Escherichia coli [1] was Active. For the same molecule, in the assay on Escherichia coli BW25113, the Activity was greater than 400 µM. Besides, the result in the assay on Escherichia coli [2] and in the assay on Escherichia coli [4] was inactive. The Ratio (in assay [3]; in the assay with Escherichia coli [7]) was 2 throughout. In addition, the MIC in the assay with Escherichia coli [5] was 12.5 µM (≈ 5.73 µg/mL); with Escherichia coli [6], 6.25 µM (≈ 2.87 µg/mL); in the assay with Escherichia coli [8] it was 50 µM (≈ 22.9 µg/mL); against Escherichia coli [9] it was 25 µM (≈ 11.5 µg/mL).

In general, MIC refers to the least concentration at which growth counts as inhibited. A lower MIC goes with greater potency.
